Assay results taken from patent publication US9816075B2, “Compounds with modifying activity enhanced under hypoxic conditions” (Board of Regents, The University of Texas System, priority 2005, dated 2017).
Marks after values point to notes of the source that are not given here.

Legend:
[1] = Animal toxicity screen / MTD by intraperitoneal injection; details: for MTD: intraperitoneal, mice, a = maximum dose due to poor solubility, b = acutely toxic with a single animal at 0.2 mg in 200 μL (about 6.0 mg/kg); for survival in toxicity screen: 0.2 mg in 200 μL 10 mM Tris buffer pH 7.5, intraperitoneal
Method: Animal toxicity screens were performed by intraperitoneal injection of suitable compounds in C57BL/6NTac mice (each with an approximate weight of 30 g). For each animal, 0.2 mg of each compound in 200 μL 10 mM Tris buffer, pH 7.5 was used. […] These were further examined by injecting at least three mice with 200 μL of a freshly prepared aqueous solution of each compound at concentrations of 0.5 mg/mL, 2 mg/mL, 5 mg/mL, 10 mg/mL, 25 mg/mL and 50 mg/mL to determine MTD values.

[2] = system: supercoiled pUC18 DNA; test: Modification (strand breaks) of supercoiled plasmid DNA, gel electrophoresis; type: biochemical; details: 12.8 μM, anaerobic, about one hour
Method: Referring now to FIG. 6, supercoiled DNA (0.154 mM base pairs) was modified by a diastereomeric mixture of the P^4+ complex in the presence and absence of a reducing agent. Lane M was the marker lane. Lane 1 was a DNA control without a reducing agent. Lane 2 included DNA without P^4+ under aerobic conditions (e.g., in the presence of oxygen or O2) with GSH, Lane 2′ included DNA with GSH (0.513 mM) without P^4+ under anaerobic conditions (e.g., hypoxia). Lanes 3, 4 and 5 were representative of modifications under aerobic (O2) conditions and lanes 2′, 3′, 4′ and 5′ were representative of modifications under anaerobic (hypoxia or absent O2) conditions. […]
Modification reactions were carried out in 0.5 mL Eppendorf tubes with 2 μL of a supercoiled pUC18 DNA (1 μg/1 μL) in a total volume of 20 μL using a 5 mM sodium phosphate buffer (pH 7). […] DNA was then dried for about 30 minutes and resuspended in about 40 μL of a storage buffer (e.g., 40 mM Tris-Cl, 1 mM EDTA at pH 8.0) with 65 μL of deionized water and 12 μL of a loading buffer (e.g., 30% glycerol in water with 0.1% w/v bromophenol blue), Each reaction was then evaluated by standard gel electrophoresis methods (e.g., loaded on 1% agarose gel stained with ethidium bromide and electrophoresed at about 80 volts for about 90 minutes using a Tris-acetate-EDTA buffer at pH 8.0). […]

[3] = system: H358, a bronchioalveolar non-small cell lung cancer cell line; test: MTT drug sensitivity assay; type: cell-based; details: 96 hours incubation; concentration that reduced formazan formation by 50%
Method: For cytotoxicity of suitable compounds a standard MTT drug sensitivity assay was performed on cancer cells, including H358, a bronchioalveolar non-small cell lung cancer cell line. Cell density in an aliquot of cells growing in log phase was determined by counting trypan blue excluding cells in a hemocytometer and 20,000 cells were plated into each well of 96-well flat-bottomed microliter plates.

[4] = Cyclic voltammetry / reduction potentials; type: physicochemical; details: cyclic voltammetry in aqueous solution, versus normal hydrogen electrode
Excerpt: This is depicted in FIG. 4 in which compounds having a tatpp or tatpq bridging ligand are provided as examples. Preferred bridging ligands have modest potentials in order for them to be accessible in a cellular milieu. […] For TJ-7p of FIG. 2, a compound in which tatpq is the bridging ligand, the first two reductions were at 70 mV and −80 mV versus the normal hydrogen electrode. These potentials are modest and easily accessible in a cellular milieu.
The reduction potential for compounds is such that these compounds are accessible to one or more reducing agents, especially in biologic conditions. For example, the bridging ligand, tatpp, when bound by two ruthenium ions in P^4+, has a reduction potential […] of about −0.22 V versus Ag/AgCl in acetonitrile. An alternate charged form of P^4+, P^3+, has an E1/2 of about −0.71 V versus Ag/AgCl in acetonitrile. These E1/2 values of the complexes make them accessible to one or more suitable reducing agents in biologic conditions.

[5] = system: calf thymus Topo I; test: Topoisomerase I relaxation of supercoiled DNA; type: biochemical; details: 0.62-3.08 μM
Method: FIGS. 19 and 20 illustrate the ability of suitable compounds to modify Topo I and Topo II. […] For FIG. 19, lane M was the marker lane containing forms I, II and III of a DNA. For all other lanes, the DNA was supercoiled pUC18 at 30.8 μM per reaction. Lane 1 was, the DNA used was pUC18 at 30.8 μM base pairs per reaction, without compound or inhibitor. Lane 2 was DNA with Tope I and no compound. Lane 3 was DNA with inhibitor, CPT. Lane 4-6 included varying concentrations of P^4+ (3.08 μM, 1.54 μM and 0.62 μM, respectively). Lane 7-9 included varying concentrations of Q^4+ (3.08 μM, 1.54 μM and 0.62 μM, respectively).
Reaction conditions for FIGS. 19 and 20 included the addition of DNA and 5 units of calf thymus Topo I in the presence or absence of either a known inhibitor (CPT), P^4+ or Q^4+. Both P^4+ and Q^4+ were examined at varying concentrations, 0.62 μM-3.08 μM. Samples were incubated at 37 degrees Centigrade in an assay buffer (e.g., 10 mM Tri-HCl at pH 7.9, 150 mM NaCl, 1 mM EDTA, 0.1% BSA, 0.1 mM spermidine, and 5% glycerol) for about 30 minutes to allow for appropriate cleavage and religation. Relaxed intermediates were then trapped by adding 5 μL of a stopping buffer (e.g., 5% SDS, 0.05% bromophenol blue and 30% glycerol). […]

[6] = system: Topo II; test: Topoisomerase II activity on supercoiled DNA; type: biochemical; details: 0.46-2.31 μM
Method: As shown, M was the marker lane containing forms I, II and III of a DNA. For all other lanes, the DNA was supercoiled pUC18 at 30.8 μM base pairs per reaction. Lane 1 was DNA without compound or inhibitor. Lane 2 was DNA with Topo H and no compound. Lane 3 was DNA with inhibitor, m-AMSA. Lanes 4-6 included varying concentrations of P^4+ (2.31 μM, 1.15 μM and 0.46 μM, respectively). Lanes 7-9 included varying concentrations of Q^4+ (2.31 μM, 1.15 μM and 0.46 μM, respectively).
For conditions using Topo II, reactions were generally performed as described for Topo I, except that 23.1 μM of DNA was used per reaction along with either the inhibitor (m-AMSA) or varying concentrations of P^4+ or Q^4+ (0.46 to 2.31 μM) in a total volume of 20 μL. The assay buffer was altered for improved Topo II activity (using 10 mM Tris-HCl at pH 7.9, 50 mM NaCl, 50 mM KCl, 5 mM MgCl2, 0.1 mM EDTA, 0.15 mg mL BSA, and 1 mM ATP) as was the running buffer (using 100 mM Tris-borate, pH 8.3, 2 mM BDTA).

Question: Which MTD [1] does the source give for [Ru2(bpy)2(tpphz)(CO)4]^4+ here?
Answer: >6^a mg/kg

Question: With Iron(II)-Bleomycin [Fe-BLM] as the substance, how does the “DNA modification in the absence of oxygen, FIG. 7” value [2] read?
Answer: unable to modify or break DNA in the absence of oxygen

Question: What does the source list for [Ru2(bpy)2(tpphz)(C2O4)2]?
Answer: IC50 [3]: 100 ± 10 µM; MTD [1]: >15^a mg/kg

Question: For “[Ru2(phen)4tatpp]^4+ [[Ru2(phen)4(tatpp)]^4+]”, which IC50 [3] is on record?
Answer: 8 ± 1 µM

Question: And the first reduction potential [4]?
Answer: 170 mV

Question: And the second reduction potential [4]?
Answer: −180 mV

Question: And the “survival in toxicity screen” value [1]?
Answer: survived

Question: For [Ru2(bpy)2(tpphz)(CO)2(Cl)2]^4+, which IC50 [3] is on record?
Answer: 8 ± 1 µM

Question: What about the MTD [1] of the same substance?
Answer: <6^b mg/kg

Question: Which IC50 [3] does the source give for [Ru2(bpy)2(tpphz)(CH3CN)4]^4+ here?
Answer: 21 ± 2 µM

Question: What about the MTD [1] of the same substance?
Answer: <6^b mg/kg

Question: With “[Ru2(phen)4tatpq]^4+ [[Ru2(phen)4(tatpq)]^4+]” as the substance, how does the IC50 [3] read?
Answer: 1 ± 0.1 µM

Question: What about the “Topo I inhibition compared with camptothecin (CPT)” value [5] of the same substance?
Answer: better than that of the known inhibitor, camptothecin

Question: What about the “Topo I inhibition, FIG. 19” value ([5]; 37 degrees Centigrade, about 30 minutes) of the same substance?
Answer: inhibited Topo I and its relaxation of supercoiled DNA

Question: And the “Topo II inhibition compared with amsacrine (m-AMSA)” value [6]?
Answer: better than that of the known inhibitor, amsacrine

Question: What about the “Topo II inhibition, FIG. 20” value [6] of the same substance?
Answer: inhibited Topo II and its activity on supercoiled DNA

Question: What about the first reduction potential [4] of the same substance?
Answer: 70 mV

Question: And the second reduction potential [4]?
Answer: −80 mV

Question: And the “survival in toxicity screen” value [1]?
Answer: survived
